# According to PubChem BioAssay (NCI):
#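 Five compound concentrations were applied to cells in 96-well plates for 48 hours; endpoints were derived by simple linear interpolation of the resulting dose-response curve. GI50: concentration for 50% inhibition of growth. TGI denotes the concentration required for complete inhibition of growth.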
# Legend:
# Assay in all cases: inhibition of tumour cell growth, NCI panel, 48 h
# [1] = test system: A549 NSCLC
# [2] = test system: LOX IMVI melanoma
# [3] = test system: ACHN renal
# [4] = test system: CCRF-CEM leukemia
# [5] = test system: HCC-2998 colon
# [6] = test system: UACC-62 melanoma
# [7] = test system: K-562 leukemia
# [8] = test system: MDA-MB-435
# [9] = test system: HCT-116 colon
# [10] = test system: COLO 205 colon
# [11] = test system: RXF 393 renal
# [12] = test system: NCI-H522 lung
# [13] = test system: EKVX NSCLC
# [14] = test system: HCT-15 colon
# [15] = test system: MALME-3M melanoma
# [16] = test system: OVCAR-5 ovarian
# [17] = test system: MCF7 breast
# [18] = test system: T-47D breast
# [19] = test system: OVCAR-4 ovarian
# [20] = test system: M14 melanoma
# [21] = test system: BT-549 breast
# [22] = test system: SF-268 CNS
# [23] = test system: SR leukemia
# [24] = test system: IGROV1 ovarian
# [25] = test system: U251 CNS
# [26] = test system: SNB-75 CNS
# [27] = test system: SK-OV-3 ovarian
# [28] = test system: OVCAR-3 ovarian
# [29] = test system: UO-31 renal
# [30] = test system: HT29 colon
# [31] = test system: KM12 colon
# [32] = test system: NCI/ADR-RES ovarian
# [33] = test system: NCI-H460 lung
# [34] = test system: TK-10 renal
# [35] = test system: HS 578T breast
# [36] = test system: SF-539 CNS
# [37] = test system: HL-60(TB) leukemia
# [38] = test system: SNB-19 CNS
# [39] = test system: A498 renal
# [40] = test system: OVCAR-8 ovarian
# [41] = test system: SK-MEL-2 melanoma
# [42] = test system: DU-145 prostate
# [43] = test system: MDA-MB-231 breast
# [44] = test system: SF-295 CNS
# [45] = test system: NCI-H23 lung
# [46] = test system: SK-MEL-5 melanoma
# [47] = test system: 786-0 renal
# [48] = test system: MOLT-4 leukemia
# [49] = test system: SW-620 colon
# [50] = test system: CAKI-1 renal
# [51] = test system: NCI-H226 lung
# [52] = test system: SN12C renal
# [53] = test system: UACC-257 melanoma
# [54] = test system: RPMI-8226 leukemia
# [55] = test system: HOP-62 NSCLC
# [56] = test system: SK-MEL-28 melanoma
# [57] = test system: PC-3 prostate
# [58] = test system: HOP-92 NSCLC
compound,measurement,setting,value
CCCCCCCCn1ccc2cc(NC(=O)Cn3cc(CN4CCCC4)nn3)ccc21,GI50,[1],1.83 µM
same,TGI,[1],3.63 µM
same,GI50,[2],1.62 µM
same,TGI,[2],3.01 µM
same,GI50,[3],1.69 µM
same,TGI,[3],3.07 µM
same,GI50,[4],2.9 µM
same,TGI,[4],> 100 µM
same,GI50,[5],1.73 µM
same,TGI,[5],3.17 µM
same,GI50,[6],1.7 µM
same,TGI,[6],3.16 µM
same,GI50,[7],1.91 µM
same,TGI,[7],3.9 µM
same,GI50,[8],1.73 µM
same,TGI,[8],3.24 µM
same,GI50,[9],1.7 µM
same,TGI,[9],3.32 µM
same,GI50,[10],1.99 µM
same,TGI,[10],3.82 µM
same,GI50,[11],1.6 µM
same,TGI,[11],3.37 µM
same,GI50,[12],1.75 µM
same,TGI,[12],3.6 µM
same,GI50,[13],1.82 µM
same,TGI,[13],4 µM
same,GI50,[14],1.84 µM
same,TGI,[14],3.79 µM
same,GI50,[15],1.52 µM
same,TGI,[15],2.89 µM
same,GI50,[16],1.78 µM
same,TGI,[16],4 µM
same,GI50,[17],1.71 µM
same,TGI,[17],3.34 µM
same,GI50,[18],1.73 µM
same,TGI,[18],3.76 µM
same,GI50,[19],4.97 µM
same,TGI,[19],18.1 µM
same,GI50,[20],1.79 µM
same,TGI,[20],3.35 µM
same,GI50,[21],1.65 µM
same,TGI,[21],3.39 µM
same,GI50,[22],1.78 µM
same,TGI,[22],3.57 µM
same,GI50,[23],2.3 µM
same,TGI,[23],6.34 µM
same,GI50,[24],1.74 µM
same,TGI,[24],3.59 µM
same,GI50,[25],1.7 µM
same,TGI,[25],3.16 µM
same,GI50,[26],1.52 µM
same,TGI,[26],2.93 µM
same,GI50,[27],1.81 µM
same,TGI,[27],3.51 µM
same,GI50,[28],2.13 µM
same,TGI,[28],4.9 µM
same,GI50,[29],1.54 µM
same,TGI,[29],2.88 µM
same,GI50,[30],1.97 µM
same,TGI,[30],4.09 µM
same,GI50,[31],1.95 µM
same,TGI,[31],3.98 µM
same,GI50,[32],2.08 µM
same,TGI,[32],4.49 µM
same,GI50,[33],1.82 µM
same,TGI,[33],3.51 µM
same,GI50,[34],1.71 µM
same,TGI,[34],3.3 µM
same,GI50,[35],1.91 µM
same,TGI,[35],4.74 µM
same,GI50,[36],1.73 µM
same,TGI,[36],3.19 µM
same,GI50,[37],1.83 µM
same,TGI,[37],3.8 µM
same,GI50,[38],1.73 µM
same,TGI,[38],3.34 µM
same,GI50,[39],1.7 µM
same,TGI,[39],3.35 µM
same,GI50,[40],2 µM
same,TGI,[40],4.09 µM
same,GI50,[41],1.86 µM
same,TGI,[41],3.66 µM
same,GI50,[42],3.12 µM
same,TGI,[42],9.61 µM
same,GI50,[43],1.84 µM
same,TGI,[43],3.49 µM
same,GI50,[44],1.87 µM
same,TGI,[44],3.72 µM
same,GI50,[45],1.92 µM
same,TGI,[45],3.8 µM
same,GI50,[46],1.79 µM
same,TGI,[46],3.18 µM
same,GI50,[47],1.69 µM
same,TGI,[47],3.13 µM
same,GI50,[48],2.41 µM
same,TGI,[48],5.9 µM
same,GI50,[49],1.86 µM
same,TGI,[49],3.6 µM
same,GI50,[50],1.76 µM
same,TGI,[50],3.28 µM
same,GI50,[51],1.59 µM
same,TGI,[51],3.16 µM
same,GI50,[52],1.74 µM
same,TGI,[52],3.29 µM
same,GI50,[53],1.86 µM
same,TGI,[53],3.57 µM
same,GI50,[54],2.18 µM
same,TGI,[54],5.17 µM
same,GI50,[55],1.75 µM
same,TGI,[55],3.49 µM
CCCn1c(=S)sc2c1nc(C)n1c(Nc3ccccc3)nnc21,GI50,[1],6.18 µM
same,TGI,[1],> 100 µM
same,GI50,[2],3.67 µM
same,TGI,[2],> 100 µM
same,GI50,[3],5.05 µM
same,TGI,[3],> 100 µM
same,GI50,[4],4.32 µM
same,TGI,[4],> 100 µM
same,GI50,[56],5.71 µM
same,TGI,[56],38.6 µM
same,GI50,[5],3.27 µM
same,TGI,[5],12.2 µM
same,GI50,[6],3.09 µM
same,TGI,[6],18.9 µM
same,GI50,[7],6.15 µM
same,TGI,[7],37.7 µM
same,GI50,[8],3.22 µM
same,TGI,[8],24.1 µM
same,GI50,[9],4.43 µM
same,TGI,[9],17.7 µM
same,GI50,[10],17 µM
same,TGI,[10],47.3 µM
same,GI50,[11],15.1 µM
same,TGI,[11],> 100 µM
same,GI50,[12],3.57 µM
same,TGI,[12],15.5 µM
same,GI50,[14],5.09 µM
same,TGI,[14],> 100 µM
same,GI50,[15],2.94 µM
same,TGI,[15],> 100 µM
same,GI50,[16],21 µM
same,TGI,[16],> 100 µM
same,GI50,[17],6.31 µM
same,TGI,[17],47.3 µM
same,GI50,[18],1.63 µM
same,TGI,[18],8.25 µM
same,GI50,[19],3.46 µM
same,TGI,[19],> 100 µM
same,GI50,[20],4.72 µM
same,TGI,[20],44 µM
same,GI50,[21],2.99 µM
same,TGI,[21],12 µM
same,GI50,[57],4.04 µM
same,TGI,[57],34.5 µM
same,GI50,[23],1.83 µM
same,TGI,[23],16 µM
same,GI50,[24],25.8 µM
same,TGI,[24],> 100 µM
same,GI50,[25],4.02 µM
same,TGI,[25],> 100 µM
same,GI50,[26],12.9 µM
same,TGI,[26],71 µM
same,GI50,[27],16.8 µM
same,TGI,[27],89.1 µM
same,GI50,[29],5.05 µM
same,TGI,[29],> 100 µM
same,GI50,[30],13.1 µM
same,TGI,[30],38.3 µM
same,GI50,[32],3.53 µM
same,TGI,[32],41.9 µM
same,GI50,[33],3.5 µM
same,TGI,[33],13.8 µM
same,GI50,[34],3.2 µM
same,TGI,[34],84 µM
same,GI50,[35],3.55 µM
same,TGI,[35],36 µM
same,GI50,[36],7.45 µM
same,TGI,[36],30.3 µM
same,GI50,[37],3.46 µM
same,TGI,[37],> 100 µM
same,GI50,[38],3.94 µM
same,TGI,[38],> 100 µM
same,GI50,[39],2.52 µM
same,TGI,[39],14.1 µM
same,GI50,[40],4.92 µM
same,TGI,[40],> 100 µM
same,GI50,[41],4.64 µM
same,TGI,[41],53.1 µM
same,GI50,[43],9.71 µM
same,TGI,[43],33 µM
same,GI50,[44],2.59 µM
same,TGI,[44],19.8 µM
same,GI50,[45],2.77 µM
same,TGI,[45],11.1 µM
same,GI50,[46],3.31 µM
same,TGI,[46],11.2 µM
same,GI50,[47],4.3 µM
same,TGI,[47],49.2 µM
same,GI50,[48],3.02 µM
same,TGI,[48],48.3 µM
same,GI50,[58],2.31 µM
same,TGI,[58],20.2 µM
same,GI50,[49],8.41 µM
same,TGI,[49],22.3 µM
same,GI50,[50],6.05 µM
same,TGI,[50],62.4 µM
same,GI50,[51],4.98 µM
same,TGI,[51],23.6 µM
same,GI50,[52],4.63 µM
same,TGI,[52],> 100 µM
same,GI50,[53],3.36 µM
same,TGI,[53],36.1 µM
same,GI50,[54],4.22 µM
same,TGI,[54],39.3 µM
same,GI50,[55],7.15 µM
same,TGI,[55],23.9 µM
